From patent US6737383B1, “Herbicidal oxadiazolidines” (priority 1999, dated 2004)

Assays:
[1] = test system: pigweed; experiment: Test B pre/postemergence pigweed; format: in vivo, Amaranthus retroflexus
Method in brief: (§1)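 Test chemicals in a non-phytotoxic solvent mixture with surfactant were sprayed preemergence onto planted seeds and postemergence onto plants 2 to 18 cm tall (1- to 4-leaf stage). After twelve to sixteen days in a greenhouse, injury was visually rated against untreated controls from 0 (no effect) to 10 (complete control).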

[2] = test system: rice; experiment: Test B flood test rice; format: in vivo, Oryza sativa
Method in brief: (§2)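 Plants were grown to the 2-leaf stage before treatment with test chemical, then held in a greenhouse for twelve to sixteen days. Injury was visually rated against untreated controls on a 0–10 scale, where 0 is no effect and 10 is complete control.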

[3] = test system: wild oat; experiment: Test B pre/postemergence wild oat; format: in vivo, Avena fatua
Method in brief: as §1

[4] = test system: corn; experiment: Test B pre/postemergence corn; format: in vivo, Zea mays
Method in brief: as §1

[5] = test system: sugar beet; experiment: Test B pre/postemergence sugar beet; format: in vivo, Beta vulgaris
Method in brief: as §1

[6] = test system: bedstraw; experiment: Test B pre/postemergence bedstraw; format: in vivo, Galium aparine
Method in brief: as §1

[7] = test system: morningglory; experiment: Test B pre/postemergence morningglory; format: in vivo, Ipomoea hederacea
Method in brief: as §1

[8] = test system: crabgrass; experiment: Test B pre/postemergence crabgrass; format: in vivo, Digitaria sanguinalis
Method in brief: as §1

[9] = test system: giant foxtail; experiment: Test B pre/postemergence giant foxtail; format: in vivo, Setaria faberii
Method in brief: as §1

[10] = test system: blackgrass; experiment: Test B pre/postemergence blackgrass; format: in vivo, Alopecurus myosuroides
Method in brief: as §1

[11] = test system: wheat; experiment: Test B pre/postemergence wheat; format: in vivo, Triticum aestivum
Method in brief: as §1

[12] = test system: rape; experiment: Test B pre/postemergence rape; format: in vivo, Brassica napus
Method in brief: as §1

[13] = test system: purple nutsedge; experiment: Test B pre/postemergence purple nutsedge; format: in vivo, Cyperus rotundus
Method in brief: as §1

[14] = test system: bamyardgrass; experiment: Test B flood test barnyardgrass; format: in vivo, Echinochloa crus-galli
Method in brief: as §2

[15] = test system: surinam grass; experiment: Test B pre/postemergence surinam grass; format: in vivo, Brachiaria decumbens
Method in brief: as §1

[16] = test system: smallflower flatsedge; experiment: Test B flood test smallflower flatsedge; format: in vivo, Cyperus difformis
Method in brief: as §2

[17] = Postemergence, Rate 125 g/ha, scale of 0 to 10 where 0 is no effect and 10 is complete control
[18] = Preemergence, Rate 62 g/ha, scale 0 to 10 (0 no effect, 10 complete control)
[19] = Preemergence, Rate 125 g/ha, 0 is no effect, 10 is complete control
[20] = Preemergence, Rate 250 g/ha, scale 0 to 10, 0 is no effect, 10 is complete control
[21] = Preemergence, Rate 500 g/ha, scale 0 to 10 (0 no effect, 10 complete control)
[22] = Rate 62 g/ha, Postemergence, scale of 0 to 10 where 0 is no effect and 10 is complete control
[23] = Rate 250 g/ha, Postemergence, scale 0 to 10, 0 is no effect, 10 is complete control
[24] = Rate 500 g/ha, Postemergence, scale 0 to 10, 0 no effect, 10 complete control
[25] = Postemergence (flood test species), Rate 125 g/ha, scale of 0 to 10 where 0 is no effect and 10 is complete control
[26] = Rate 62 g/ha, Postemergence section, flood test species, scale of 0 to 10 where 0 is no effect and 10 is complete control
[27] = Rate 250 g/ha, Postemergence (flood test), scale 0 to 10, 0 is no effect, 10 is complete control
[28] = Rate 250 g/ha, headed Pre-emergence (flood test species), scale 0 to 10 (0 no effect, 10 complete control)
[29] = Rate 500 g/ha, headed Pre-emergence (flood test species), scale 0 to 10 (0 no effect, 10 complete control)
[30] = Rate 500 g/ha, listed under Postemergence (flood test species), scale 0 to 10, 0 no effect, 10 complete control
[31] = Rate 1000 g/ha, Pre-emergence (as headed), scale 0 to 10
[32] = Rate 2000 g/ha, Pre-emergence (as headed), scale 0 to 10
[33] = Postemergence, Rate 62 g/ha, scale 0 to 10, 0 is no effect, 10 is complete control

SMILES: CC(C)N(C(=O)n1oc(=O)n(-c2ccnn2C)c1=O)c1ccc(F)cc1 [Compound 124]
- Redroot pigweed plant response rating [1, 17]: 0
- Redroot pigweed plant response rating [1, 18]: 0
- Redroot pigweed plant response rating (0 to 10 scale) [1, 19]: 0
- Redroot pigweed plant response rating [1, 20]: 0
- Redroot pigweed plant response rating [1, 21]: 0
- Redroot pigweed plant response rating [1, 22]: 0
- Plant response rating, Redroot pigweed [1, 23]: 0
- Redroot pigweed plant response rating [1, 24]: 0
- Rice plant response rating [2, 25]: 0
- Rice plant response rating [2, 26]: 0
- Plant response rating, Rice [2, 27]: 0
- Rice plant response rating [2, 28]: 0
- Plant response rating, Rice [2, 29]: 0
- Rice plant response rating [2, 30]: 0
- Rice plant response rating [2, 31]: 0
- Rice plant response rating [2, 32]: 0
- Wild oats plant response rating [3, 17]: 0
- Wild oats plant response rating [3, 18]: 0
- Wild oats plant response rating (0 to 10 scale) [3, 19]: 0
- Wild oats plant response rating [3, 20]: 0
- Wild oats plant response rating [3, 21]: 0
- Wild oats plant response rating [3, 22]: 0
- Plant response rating, Wild oats [3, 23]: 0
- Wild oats plant response rating [3, 24]: 0
- Corn plant response rating [4, 17]: 0
- Corn plant response rating [4, 18]: 0
- Corn plant response rating (0 to 10 scale) [4, 19]: 0
- Corn plant response rating [4, 20]: 0
- Corn plant response rating [4, 21]: 0
- Corn plant response rating [4, 22]: 0
- Plant response rating, Corn [4, 23]: 0
- Corn plant response rating [4, 24]: 0
- Sugarbeets plant response rating [5, 17]: 0
- Sugarbeets plant response rating [5, 18]: 0
- Sugarbeets plant response rating (0 to 10 scale) [5, 19]: 0
- Sugarbeets plant response rating [5, 20]: 0
- Sugarbeets plant response rating [5, 21]: 0
- Sugarbeets plant response rating [5, 22]: 0
- Plant response rating, Sugarbeets [5, 23]: 0
- Sugarbeets plant response rating [5, 24]: 0
- Bedstraw plant response rating [6, 18]: 0
- Bedstraw plant response rating (0 to 10 scale) [6, 19]: 0
- Bedstraw plant response rating [6, 20]: 0
- Bedstraw plant response rating [6, 21]: 0
- Bedstraw plant response rating [6, 24]: 0
- Morningglory plant response rating [7, 17]: 0
- Morningglory plant response rating [7, 18]: 0
- Morningglory plant response rating (0 to 10 scale) [7, 19]: 0
- Morningglory plant response rating [7, 20]: 0
- Morningglory plant response rating [7, 21]: 0
- Morningglory plant response rating [7, 22]: 0
- Plant response rating, Morningglory [7, 23]: 0
- Morningglory plant response rating [7, 24]: 2
- Crabgrass plant response rating [8, 17]: 0
- Crabgrass plant response rating [8, 18]: 0
- Crabgrass plant response rating (0 to 10 scale) [8, 19]: 0
- Crabgrass plant response rating [8, 20]: 0
- Crabgrass plant response rating [8, 21]: 0
- Crabgrass plant response rating [8, 22]: 0
- Plant response rating, Crabgrass [8, 23]: 0
- Crabgrass plant response rating [8, 24]: 0
- Giant foxtail plant response rating [9, 17]: 0
- Giant foxtail plant response rating [9, 18]: 0
- Giant foxtail plant response rating (0 to 10 scale) [9, 19]: 0
- Giant foxtail plant response rating [9, 20]: 0
- Giant foxtail plant response rating [9, 21]: 0
- Giant foxtail plant response rating [9, 22]: 0
- Plant response rating, Giant foxtail [9, 23]: 0
- Giant foxtail plant response rating [9, 24]: 0
- Blackgrass plant response rating [10, 17]: 0
- Blackgrass plant response rating [10, 18]: 0
- Blackgrass plant response rating (0 to 10 scale) [10, 19]: 0
- Blackgrass plant response rating [10, 20]: 0
- Blackgrass plant response rating [10, 21]: 0
- Blackgrass plant response rating [10, 22]: 0
- Plant response rating, Blackgrass [10, 23]: 0
- Blackgrass plant response rating [10, 24]: 0
- Wheat plant response rating [11, 17]: 0
- Wheat plant response rating [11, 18]: 0
- Wheat plant response rating (0 to 10 scale) [11, 19]: 0
- Wheat plant response rating [11, 20]: 0
- Wheat plant response rating [11, 21]: 0
- Wheat plant response rating [11, 22]: 0
- Plant response rating, Wheat [11, 23]: 0
- Wheat plant response rating [11, 24]: 0
- Rape plant response rating [12, 17]: 0
- Rape plant response rating [12, 18]: 0
- Rape plant response rating (0 to 10 scale) [12, 19]: 0
- Rape plant response rating [12, 20]: 0
- Rape plant response rating [12, 21]: 0
- Rape plant response rating [12, 22]: 0
- Plant response rating, Rape [12, 23]: 0
- Rape plant response rating [12, 24]: 0
- Nutsedge plant response rating [13, 17]: 0
- Nutsedge plant response rating [13, 18]: 0
- Nutsedge plant response rating (0 to 10 scale) [13, 19]: 0
- Nutsedge plant response rating [13, 20]: 0
- Nutsedge plant response rating [13, 21]: 0
- Nutsedge plant response rating [13, 22]: 0
- Plant response rating, Nutsedge [13, 23]: 0
- Nutsedge plant response rating [13, 24]: 0
- Barnyardgrass plant response rating [14, 25]: 0
- Barnyardgrass plant response rating [14, 33]: 0
- Plant response rating, Barnyardgrass [14, 27]: 0
- Barnyardgrass plant response rating [14, 28]: 0
- Plant response rating, Barnyardgrass [14, 29]: 0
- Barnyardgrass plant response rating [14, 30]: 0
- Barnyardgrass plant response rating [14, 31]: 0
- Barnyardgrass plant response rating ([14]; Rate 2000 g/ha, Pre-emergence (as headed), scale 0 to 10, 0 no effect, 10 complete control): 0
- B. signalgrass plant response rating [15, 33]: 0
- B. signalgrass plant response rating [15, 17]: 0
- B. signalgrass plant response rating [15, 18]: 0
- B. signalgrass plant response rating (0 to 10 scale) [15, 19]: 0
- B. signalgrass plant response rating [15, 20]: 0
- B. signalgrass plant response rating [15, 21]: 0
- Plant response rating, B. signalgrass [15, 23]: 0
- B. signalgrass plant response rating ([15]; Rate 500 g/ha, Postemergence, scale of 0 to 10 where 0 is no effect and 10 is complete control): 0
- S. Flatsedge plant response rating [16, 25]: 0
- S. Flatsedge plant response rating ([16]; Pre-emergence, Rate 1000 g/ha, scale 0 to 10 (0 no effect, 10 complete control)): 0
- S. Flatsedge plant response rating [16, 26]: 0
- Plant response rating, S. Flatsedge [16, 27]: 0
- S. Flatsedge plant response rating [16, 28]: 0
- Plant response rating, S. Flatsedge [16, 29]: 0
- S. Flatsedge plant response rating [16, 30]: 0
- S. Flatsedge plant response rating [16, 32]: 0
